Experimental data as given in US20230293526A1, “METHOD FOR TREATING CANCER WITH A REVERSE TRANSCRIPTASE INHIBITOR” (PrimeFour Therapeutics, Inc., priority 2020, published 2023).

Columns and labels:
[1] = tested on: human LINE-1; assay: Human LINE-1 (L1) retrotransposition dual-luciferase reporter assay in HeLa cells; format: cell-based; details: Homo sapiens, HeLa, 72 h, read-out: Human LINE-1 IC50 (Human L1 activity inhibition)
Outline: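 Compound dilution series (final DMSO 0.2%) added right after transfecting HeLa cells with the pYX017 L1 dual-luciferase reporter; 72 h culture at 37 °C, 5% CO2, triplicates. IC50 fitted by non-linear logistic regression to firefly-to-Renilla luminescence ratio (×10,000).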

[2] = tested on: cancer cell lines; assay: Cancer cell proliferation activity of representative nucleosides, CellTiterGlo 72 h (Example 7, Tables 8 and 9); format: cell-based; details: 72 h
Outline: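 Percent viability was set against 0.1% DMSO (100%) and 10 μM staurosporine (0%), with signal from CellTiterGlo luminescence. Dose-response treatment began one day after seeding and lasted 72 h at 37° C under 5% or 10% CO2, with 0.1% final DMSO.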

- IC50 [1]: 21 nM
- IC50 ([2]; 72 h, 5637, bladder): 0.81 µM
- IC50 ([2]; CLS439, bladder): > 50 µM
- IC50 ([2]; HS729, muscle): > 50 µM
- IC50 ([2]; J82, bladder): 1.16 µM
- IC50 ([2]; JAR, placenta): 7.25 µM
- IC50 ([2]; MT3, breast): 1.46 µM
- IC50 ([2]; PC3, prostate): 6.33 µM
- IC50 ([2]; RD, muscle): 4.22 µM
- IC50 ([2]; T24, bladder): 3.76 µM
- IC50 ([2]; Homo sapiens, 22Rv1, 72 h, 22RV1, prostate): 0.55 µM
- IC50 ([2]; Homo sapiens, 786-0, 72 h, 786O, kidney): 3.54 µM
- IC50 ([2]; Homo sapiens, A204, 72 h, A204, muscle): 9.82 µM
- IC50 ([2]; Homo sapiens, A549, 72 h, A549, lung): 1.24 µM
- IC50 ([2]; Homo sapiens, A673, 72 h, A673, bone): 1.96 µM
- IC50 ([2]; Homo sapiens, A2780, 72 h, A2780, ovary): 4.18 µM
- IC50 ([2]; Homo sapiens, A-375, 72 h, A375, skin): > 50 µM
- IC50 ([2]; Homo sapiens, A-431, 72 h, A431, skin): 0.11 µM
- IC50 ([2]; Homo sapiens, ACHN, kidney): 1.05 µM
- IC50 ([2]; Homo sapiens, ASPC1, 72 h, ASPC1, pancreas): 2.58 µM
- IC50 ([2]; Homo sapiens, BT-20, 72 h, BT20, breast): > 50 µM
- IC50 ([2]; Homo sapiens, BXPC-3, 72 h, BXPC3, pancreas): 0.23 µM
- IC50 ([2]; Homo sapiens, C-33-A, C33A, endometrial): 4.56 µM
- IC50 ([2]; Homo sapiens, CAKI-1, 72 h, CAKI1, kidney): > 50 µM
- IC50 ([2]; Homo sapiens, COLO 205, 72 h, COLO205, colon): 0.91 µM
- IC50 ([2]; Homo sapiens, COLO-678, 72 h, COLO678, colon): > 50 µM
- IC50 ([2]; Homo sapiens, Ca-Ski, CASKI, endometrial): 11.6 µM
- IC50 ([2]; Homo sapiens, Caco-2, 72 h, CACO2, colon): > 50 µM
- IC50 ([2]; Homo sapiens, Calu-6, 72 h, CALU6, lung): > 50 µM
- IC50 ([2]; Homo sapiens, DLD-1, 72 h, DLD1, colon): 4.35 µM
- IC50 ([2]; Homo sapiens, DU-145, 72 h, DU145, prostate): 2.42 µM
- IC50 ([2]; Homo sapiens, EFO-21, 72 h, EFO21, ovary): 2.41 µM
- IC50 ([2]; Homo sapiens, EJ-28, 72 h, EJ28, bladder): 2.21 µM
- IC50 ([2]; Homo sapiens, Granta-519, 72 h, GRANTA-519, hematological): 3.24 µM
- IC50 ([2]; Homo sapiens, HCT-15, 72 h, HCT15, colon): 4.08 µM
- IC50 ([2]; Homo sapiens, HCT-116, 72 h, HCT116, colon): > 50 µM
- IC50 ([2]; Homo sapiens, HEK293, 72 h, HEK293, kidney): 7.63 µM
- IC50 ([2]; Homo sapiens, HL-60, 72 h, HL-60, hematological): 4.04 µM
- IC50 ([2]; Homo sapiens, HT-29, 72 h, HT29, colon): 1.47 µM
- IC50 ([2]; Homo sapiens, HT-1080, 72 h, HT1080, connective tissue): 2.88 µM
- IC50 ([2]; Homo sapiens, HeLa, endometrial): > 50 µM
- IC50 ([2]; Homo sapiens, HepG2, 72 h, HEPG2, liver): 1.6 µM
- IC50 ([2]; Homo sapiens, Hs-578T, HS578T, breast): > 50 µM
- IC50 ([2]; Homo sapiens, IGROV-1, 72 h, IGROV1, ovary): 5.01 µM
- IC50 ([2]; Homo sapiens, IMR-90, 72 h, IMR90, lung): > 50 µM
- IC50 ([2]; Homo sapiens, JEG-3, 72 h, JEG3, placenta): 0.99 µM
- IC50 ([2]; Homo sapiens, JIMT-1, 72 h, JIMT1, breast): 4.47 µM
- IC50 ([2]; Homo sapiens, K562, 72 h, K-562, hematological): 4.38 µM
- IC50 ([2]; Homo sapiens, Kasumi 1, 72 h, KASUMI-1, hematological): > 50 µM
- IC50 ([2]; Homo sapiens, L-363, 72 h, L-363, hematological): 1.96 µM
- IC50 ([2]; Homo sapiens, LoVo, colon): 1.62 µM
- IC50 ([2]; Homo sapiens, MCF7, 72 h, MCF7, breast): 1.19 µM
- IC50 ([2]; Homo sapiens, MDA-MB-231, 72 h, MDAMB231, breast): > 50 µM
- IC50 ([2]; Homo sapiens, MDA-MB-435, 72 h, MDAMB435, skin): 4.39 µM
- IC50 ([2]; Homo sapiens, MDA-MB-436, 72 h, MDAMB436, breast): 1.37 µM
- IC50 ([2]; Homo sapiens, MDA-MB-468, 72 h, MDAMB468, breast): > 50 µM
- IC50 ([2]; Homo sapiens, MG-63, 72 h, MG63, bone): 2.44 µM
- IC50 ([2]; Homo sapiens, MHH-ES-1, 72 h, MHHES1, bone): 1.53 µM
- IC50 ([2]; Homo sapiens, MIA PaCa-2, 72 h, MIAPACA2, pancreas): 3.75 µM
- IC50 ([2]; Homo sapiens, MINO, hematological): 3.74 µM
- IC50 ([2]; Homo sapiens, MV4-11, 72 h, MV4-11, hematological): 0.39 µM
- IC50 ([2]; Homo sapiens, NCI-H23, 72 h, NCI-H23, lung): 2.42 µM
- IC50 ([2]; Homo sapiens, NCI-H82, 72 h, NCIH82, lung): 2.35 µM
- IC50 ([2]; Homo sapiens, NCI-H292, 72 h, NCIH292, lung): > 50 µM
- IC50 ([2]; Homo sapiens, NCI-H460, 72 h, NCIH460, ung): 1.06 µM
- IC50 ([2]; Homo sapiens, OVCAR-3, 72 h, OVCAR3, ovary): 5.6 µM
- IC50 ([2]; Homo sapiens, OVCAR-4, 72 h, OVCAR4, ovary): > 50 µM
- IC50 ([2]; Homo sapiens, PANC-1, 72 h, PANC1, pancreas): 6.4 µM
- IC50 ([2]; Homo sapiens, PLC-PRF-5, 72 h, PLCPRF5, liver): 3.24 µM
- IC50 ([2]; Homo sapiens, Panc1005, 72 h, PANC1005, pancreas): 16.4 µM
- IC50 ([2]; Homo sapiens, Ramos, hematological): 5.3 µM
- IC50 ([2]; Homo sapiens, SAOS-2, 72 h, SAOS2, bone): 4.72 µM
- IC50 ([2]; Homo sapiens, SF-268, 72 h, SF268, brain): 1.65 µM
- IC50 ([2]; Homo sapiens, SF-295, 72 h, SF295, brain): 4.49 µM
- IC50 ([2]; Homo sapiens, SK-BR-3, 72 h, SKBR3, breast): 0.12 µM
- IC50 ([2]; Homo sapiens, SK-HEP1, 72 h, SKHEP1, liver): 1.29 µM
- IC50 ([2]; Homo sapiens, SK-LMS-1, 72 h, SKLMS1, uterus): 5.61 µM
- IC50 ([2]; Homo sapiens, SK-MEL-5, 72 h, SKMEL5, skin): 5.52 µM
- IC50 ([2]; Homo sapiens, SK-MEL-28, 72 h, SKMEL28, skin): > 50 µM
- IC50 ([2]; Homo sapiens, SK-N-AS, SKNAS, brain): > 50 µM
- IC50 ([2]; Homo sapiens, SK-N-SH, SKNSH, brain): 2.44 µM
- IC50 ([2]; Homo sapiens, SK-OV-3, 72 h, SKOV3, ovary): 1.64 µM
- IC50 ([2]; Homo sapiens, SNB-75, 72 h, SNB75, brain): > 50 µM
- IC50 ([2]; Homo sapiens, SU-DHL10, 72 h, SU-DHL-10, hematological): 3.15 µM
- IC50 ([2]; Homo sapiens, SU-DHL-6, 72 h, SU-DHL-6, hematological): 4.69 µM
- IC50 ([2]; Homo sapiens, SW-620, 72 h, SW620, colon): 0.91 µM
- IC50 ([2]; Homo sapiens, TE-671, 72 h, TE671, muscle): 5.9 µM
- IC50 ([2]; Homo sapiens, THP-1, 72 h, THP-1, hematological): 1.12 µM
- IC50 ([2]; Homo sapiens, U2OS, bone): > 50 µM
- IC50 ([2]; Homo sapiens, U-87 MG, U87MG, brain): 11.9 µM
- IC50 ([2]; Homo sapiens, UMUC3, 72 h, UMUC3, bladder): 3.39 µM
- IC50 ([2]; Homo sapiens, UO-31, 72 h, UO31, kidney): > 50 µM
- IC50 ([2]; Homo sapiens, WSU-NHL, hematological): 3.53 µM
- IC50 ([2]; NCI-H358M, NCIH358M, lung): > 50 µM
- IC50 ([2]; PBMC, hematological): > 50 µM
- IC50 ([2]; RD-ES, RDES, bone): 3.93 µM
Compound: C#C[C@]1(CO)O[C@@H](n2cc(F)c(N)nc2=O)C[C@@H]1O [compound 9]
